In ChEMBL document CHEMBL1201862, “PubChem BioAssay data set” (2004):
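Following 48 hours of exposure in 96-well plates, responses at five concentrations were used to interpolate endpoints linearly. GI50: concentration for 50% inhibition of growth.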 Calls of active or inactive are those of the source. No stated cut-off is given here; in the data, active = GI50 up to about 1.1 µM and inactive = higher.

Tests used:
Test in all cases: inhibition of tumour cell growth, NCI panel, 48 h
[1] = test system: Hs-578T
[2] = test system: RPMI-8226
[3] = test system: PC-3
[4] = test system: KM12
[5] = test system: 786-0
[6] = test system: SF-539
[7] = test system: NCI-H460
[8] = test system: NCI-H522
[9] = test system: BT-549
[10] = test system: HCT-116
[11] = test system: HOP-62
[12] = test system: NCI-H23
[13] = test system: SN12C
[14] = test system: NCI/ADR-RES
[15] = test system: A549
[16] = test system: HL-60
[17] = test system: NCI-H226
[18] = test system: OVCAR-4
[19] = test system: A498
[20] = test system: MDA-N

Measured: GI50

CC(CO)(Nc1ccc([N+](=O)[O-])cc1[N+](=O)[O-])C(=O)O (centres undefined)
inactive: [1] 17.3 µM | [2] 29.3 µM | [3] 64.6 µM | [4] 43.5 µM | [5] 71 µM | [6] 34 µM | [7] 15.5 µM | [8] 18.7 µM | [9] 29.5 µM | [10] 63.2 µM | [11] 49.1 µM | [12] 27.8 µM | [13] 20.7 µM | [14] 35.5 µM | [15] 38.3 µM | [16] 17.6 µM | [17] > 100 µM

O=C1/C(=C/c2cccc(O)c2)COc2ccccc21
inactive: [18] 5.32 µM | [1] 9.77 µM | [19] 20.3 µM | [2] 1.15 µM | [3] 7.83 µM | [4] 2.15 µM | [5] 4.69 µM | [6] 9.86 µM | [7] 20.8 µM | [8] 2.51 µM | [9] 15.5 µM | [10] 1.75 µM | [11] 15 µM | [12] 5.74 µM | [13] 8.04 µM | [14] 2.17 µM | [15] 20 µM | [16] 4.5 µM | [17] 11.4 µM

Cc1cccc(N(C(=O)Nc2ccc(Cl)c(Cl)c2)C2=NCC(C)S2)c1 (centres undefined)
inactive: [18] 41.6 µM | [1] 32.5 µM | [19] 57.8 µM | [2] 49.1 µM | [3] 43.9 µM | [4] 18.9 µM | [5] 31.8 µM | [6] 22.7 µM | [7] 41.9 µM | [20] 32.9 µM | [10] 43.1 µM | [11] > 100 µM | [12] 37.3 µM | [13] 59.3 µM | [14] 28 µM | [15] 38.9 µM | [16] 41.6 µM

Cc1ccc(/C=C2\CN(C)CC3=C2N=C(S)NC3c2ccc(C)cc2)cc1 (centres undefined)
inactive: [18] 14 µM | [1] > 100 µM | [19] > 100 µM | [3] 32.1 µM | [4] 15.4 µM | [5] 21 µM | [6] 39 µM | [7] 37.6 µM | [8] 39.5 µM | [20] 13.5 µM | [10] 21.8 µM | [11] 40.5 µM | [12] 39 µM | [13] 32.7 µM | [14] 23.8 µM | [15] 37.2 µM | [16] 28.2 µM | [17] 27.8 µM

O=C(O)/C(=C/C(=O)c1ccc(Cl)cc1)NNc1ccc([N+](=O)[O-])cc1[N+](=O)[O-]
inactive: [18] 19.7 µM | [1] 31.2 µM | [19] > 100 µM | [2] 28.5 µM | [3] 36.2 µM | [4] 51.8 µM | [5] 27 µM | [6] 35.3 µM | [7] 34.3 µM | [8] 21.6 µM | [9] 23.2 µM | [10] 19.6 µM | [11] 28.4 µM | [12] 44.1 µM | [13] 41.8 µM | [14] 45.8 µM | [15] 40.6 µM | [16] 49.3 µM | [17] 23.7 µM

CN1C=COC1N=C1CCCCC1 (centres undefined)
inactive: [18] > 100 µM | [1] > 100 µM | [19] > 100 µM | [2] > 100 µM | [3] > 100 µM | [4] > 100 µM | [5] > 100 µM | [6] > 100 µM | [7] > 100 µM | [8] > 100 µM | [20] > 100 µM | [10] > 100 µM | [11] > 100 µM | [12] > 100 µM | [13] > 100 µM | [14] > 100 µM | [15] > 100 µM | [16] > 100 µM | [17] > 100 µM

C#CCOC(=O)C=[N+]=[N-]
inactive: [19] 6.92 µM | [2] > 10 µM | [3] > 10 µM | [4] > 10 µM | [5] > 10 µM | [6] > 10 µM | [7] > 10 µM | [9] > 10 µM | [20] > 10 µM | [10] > 10 µM | [11] > 10 µM | [12] > 10 µM | [13] > 10 µM | [15] > 10 µM | [16] > 10 µM | [17] > 10 µM

CS/C(=N\S(=O)(=O)c1ccc(Cl)cc1)NCCN/C(=N/S(=O)(=O)c1ccc(Cl)cc1)SC
inactive: [18] 2.3 µM | [19] 37.5 µM | [2] > 100 µM | [3] 8.43 µM | [5] 24.8 µM | [6] 61.4 µM | [7] > 100 µM | [8] 2.58 µM | [20] > 100 µM | [10] > 100 µM | [11] 20.6 µM | [12] 48 µM | [13] > 100 µM | [14] > 100 µM | [16] > 100 µM

O=C1OC(CS(=O)(=O)c2ccccc2)CC1O (centres undefined)
inactive: [18] > 100 µM | [19] > 100 µM | [2] > 100 µM | [3] > 100 µM | [4] > 100 µM | [5] > 100 µM | [6] > 100 µM | [7] > 100 µM | [8] 53.1 µM | [9] 72.8 µM | [20] > 100 µM | [10] > 100 µM | [11] > 100 µM | [12] > 100 µM | [13] > 100 µM | [14] > 100 µM | [15] > 100 µM | [17] > 100 µM

COC(=O)C(Cc1ccccc1I)C1=CCC2(CC1)OCCO2 (centres undefined)
inactive: [18] 37.2 µM | [1] 26.6 µM | [19] 74.1 µM | [2] 30 µM | [3] 26.9 µM | [4] 22.9 µM | [5] 34.3 µM | [6] 63.8 µM | [7] 33.3 µM | [8] 21.4 µM | [20] 28.6 µM | [11] 28.9 µM | [12] 26.4 µM | [14] 18.6 µM | [15] 22.4 µM | [16] 18.7 µM | [17] 79.3 µM

CCOC1CCC2C(CCC(/C=C/c3ccc(O)c4ncccc34)N2C)C1 (centres undefined)
inactive: [1] 15.2 µM | [2] 25.4 µM | [3] 8.75 µM | [4] 17.4 µM | [5] 6.44 µM | [6] 3.67 µM | [7] 7.89 µM | [8] 1.99 µM | [20] 38.5 µM | [11] 8.71 µM | [12] 10.3 µM | [13] 4.78 µM | [14] > 100 µM | [15] 25.1 µM | [16] 3.84 µM | [17] 37.4 µM

Fc1ccccc1-c1nn2c(C34CC5CC(CC(C5)C3)C4)nnc2s1
inactive: [18] > 100 µM | [1] > 100 µM | [19] > 100 µM | [2] > 100 µM | [3] > 100 µM | [5] > 100 µM | [6] > 100 µM | [7] > 100 µM | [8] > 100 µM | [20] > 100 µM | [10] > 100 µM | [11] > 100 µM | [12] > 100 µM | [13] > 100 µM | [14] > 100 µM | [15] > 100 µM | [17] > 100 µM

C/C=C/C=C/C=C/C=C/C(=O)O
inactive: [18] > 100 µM | [19] > 100 µM | [2] > 100 µM | [4] > 100 µM | [5] > 100 µM | [6] > 100 µM | [7] > 100 µM | [8] > 100 µM | [10] > 100 µM | [11] > 100 µM | [12] > 100 µM | [13] > 100 µM | [15] > 100 µM | [16] > 100 µM | [17] > 100 µM

CC(C)C1=CC23CCC4C(C)(C(=O)O)CCCC4(C)C2CC1C1C(=O)N(c2ccc(N4C(=O)C5C6CC7C8(C)CCCC(C)(C(=O)O)C8CCC7(C=C6C(C)C)C5C4=O)cc2)C(=O)C13 (centres undefined)
inactive: [18] 10.4 µM | [1] 6.22 µM | [19] 11.2 µM | [2] 3.96 µM | [3] 3.2 µM | [4] 4.17 µM | [5] 13.1 µM | [6] 4.3 µM | [8] 4.98 µM | [20] 4.43 µM | [10] 3.38 µM | [11] 5.12 µM | [12] 3.79 µM | [13] 4.46 µM | [15] 6.1 µM | [16] 3.4 µM | [17] 3.45 µM

CC(C)(C)OC(=O)N(CCCN)CCCCN
inactive: [18] > 100 µM | [1] > 100 µM | [19] > 100 µM | [2] > 100 µM | [3] > 100 µM | [4] > 100 µM | [5] > 100 µM | [6] > 100 µM | [7] > 100 µM | [8] > 100 µM | [9] > 100 µM | [10] > 100 µM | [11] > 100 µM | [12] > 100 µM | [13] > 100 µM | [14] > 100 µM | [15] > 100 µM | [16] > 100 µM | [17] > 100 µM

COc1cc2nc(-c3cccc(N(C)C)c3)cc(O)c2cc1OC
inactive: [18] > 100 µM | [19] 6.03 µM | [2] 3.65 µM | [4] 3.31 µM | [5] 3.57 µM | [6] 2.66 µM | [7] 3.94 µM | [8] 2.81 µM | [10] 4.8 µM | [11] 3.02 µM | [12] 3.54 µM | [13] 7.67 µM | [15] 4.06 µM | [16] 2.7 µM | [17] 3.58 µM
